Source: patent US6914045B2, “Glycopeptide antibiotics” (Wyeth Holdings Corporation, priority 2001, dated 2005)
In brackets after ≈: the same amount, converted by molar mass.

Experiments:
Experiment in all cases: in vitro antibacterial evaluation, MIC by broth dilution
Type in all cases: cell-based
Escherichia coli = test system: Escherichia coli
Outline: (§1)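 Broth dilution per NCCLS M7-A2 in Mueller-Hinton II medium, inoculum 5×10^5 CFU/mL, antibiotic range 64-0.06 μg/mL. MIC taken as lowest concentration inhibiting growth; Gram-positive panel includes recent clinical isolates resistant to methicillin, penicillin and/or vancomycin.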

Staphylococcus sp. = conditions: broth dilution, 18 hours at 35° C.; for MIC Staphylococcus aureus (GC 1131): strain GC 1131
Outline: as §1

Enterococcus sp. = conditions: broth dilution, 18 hours at 35° C.
Outline: as §1

Streptococcus sp. = conditions: broth dilution, 18 hours at 35° C.
Outline: as §1

Which “MIC Escherichia coli (ATCC 25922)” value (Escherichia coli; strain ATCC 25922, 18 hours at 35° C.) does the source give for `COc1cccc(C2OC3C(OC4C(CO)OC(Oc5ccc(CC6NC(=O)C(C(C)c7ccccc7)NC(=O)CNC(=O)C(CO)NC(=O)C(C(O)C7CNC(=N)N7C7OC(CO)C(O)C(O)C7O)NC(=O)C(C(O)C7CNC(=N)N7)NC6=O)cc5)C(O)C4O)OC(CO)C(O)C3O2)c1` (single isomer, unassigned) [Example 137b, Cyclo[glycyl-β-methylphenylalanyl-O-[4-O-[2,3-O-(3-methoxybenzylidene)hexopyranosyl]-hexopyranosyl]tyrosyl-3-(2-iminoimidazolidin-4-yl)seryl-3-(3-hexopyranosyl-2-iminoimidazolidin-4-yl)serylseryl]] here?
Its value is greater than 64 µg/mL.

And the “MIC Escherichia coli (GC 4559)” value (Escherichia coli; strain GC 4559, 18 hours at 35° C.)?
The value was greater than 64 µg/mL.

What about the “MIC Escherichia coli (GC 4560)” value (Escherichia coli; strain GC 4560, 18 hours at 35° C.) of the same compound?
Its value is 4 µg/mL (≈ 2.83 µM).

What about the “MIC Staphylococcus aureus (GC 1131)” value (Staphylococcus sp.; inoculum 5×10^5 CFU/mL) of the same compound?
The value was 16 µg/mL (≈ 11.3 µM).

And the “MIC Staphylococcus aureus (ATCC 29213)” value (Staphylococcus sp.; strain ATCC 29213)?
Its value is 16 µg/mL (≈ 11.3 µM).

And the “MIC Staphylococcus aureus (GC 1131)” value (Staphylococcus sp.)?
Its value is 16 µg/mL (≈ 11.3 µM).

And the “MIC Staphylococcus aureus (GC 3051)” value (Staphylococcus sp.; strain GC 3051)?
The value was 16 µg/mL (≈ 11.3 µM).

What about the “MIC Staphylococcus aureus (GC 3053)” value (Staphylococcus sp.; strain GC 3053) of the same compound?
Its value is 16 µg/mL (≈ 11.3 µM).

And the “MIC Staphylococcus aureus (GC 4541)” value (Staphylococcus sp.; strain GC 4541)?
Its value is 8 µg/mL (≈ 5.66 µM).

And the “MIC Staphylococcus aureus (GC 4542)” value (Staphylococcus sp.; strain GC 4542)?
The value was 16 µg/mL (≈ 11.3 µM).

And the “MIC Staphylococcus aureus-SMITH (GC 4543)” value (Staphylococcus sp.; strain GC 4543)?
Its value is 8 µg/mL (≈ 5.66 µM).

And the “MIC Staphylococcus aureus (GC 4544)” value (Staphylococcus sp.; strain GC 4544)?
The value was 16 µg/mL (≈ 11.3 µM).

What about the “MIC Staphylococcus aureus (GC 4545)” value (Staphylococcus sp.; strain GC 4545) of the same compound?
Its value is 16 µg/mL (≈ 11.3 µM).

And the “MIC Staphylococcus haemolyticus (GC 4546)” value (Staphylococcus sp.; strain GC 4546)?
The value was 8 µg/mL (≈ 5.66 µM).

What about the “MIC Coagulase Negative Staphylococcus (GC 4547)” value (Staphylococcus sp.; strain GC 4547) of the same compound?
The value was 8 µg/mL (≈ 5.66 µM).

What about the “MIC Coagulase Negative Staphylococcus (GC 4548)” value (Staphylococcus sp.; strain GC 4548) of the same compound?
Its value is 4 µg/mL (≈ 2.83 µM).

And the “MIC Coagulase Negative Staphylococcus (GC 4549)” value (Staphylococcus sp.; strain GC 4549)?
Its value is 8 µg/mL (≈ 5.66 µM).

What about the “MIC Coagulase Negative Staphylococcus (GC 4551)” value (Staphylococcus sp.; strain GC 4551) of the same compound?
The value was 8 µg/mL (≈ 5.66 µM).

What about the “MIC Coagulase Negative Staphylococcus (GC 6257)” value (Staphylococcus sp.; strain GC 6257) of the same compound?
Its value is 4 µg/mL (≈ 2.83 µM).

And the “MIC Staphylococcus aureus-SMITH (GC 4543)” value (Staphylococcus sp.; strain SMITH GC 4543)?
The value was 8 µg/mL (≈ 5.66 µM).

And the “MIC Enterococcus avium (GC 4558)” value (Enterococcus sp.; Enterococcus avium (GC 4558))?
The value was 32 µg/mL (≈ 22.6 µM).

And the “MIC Enterococcus faecalis (ATCC 29212)” value (Enterococcus sp.; Enterococcus faecalis (ATCC 29212))?
The value was 32 µg/mL (≈ 22.6 µM).

And the “MIC Enterococcus faecalis (GC 2242)” value (Enterococcus sp.; Enterococcus faecalis (GC 2242))?
Its value is 32 µg/mL (≈ 22.6 µM).

And the “MIC Enterococcus faecalis (GC 2691)” value (Enterococcus sp.; Enterococcus faecalis (GC 2691))?
The value was 32 µg/mL (≈ 22.6 µM).

What about the “MIC Enterococcus faecalis (GC 3059)” value (Enterococcus sp.; Enterococcus faecalis (GC 3059)) of the same compound?
The value was 64 µg/mL (≈ 45.3 µM).

And the “MIC Enterococcus faecalis (GC 4552)” value (Enterococcus sp.; Enterococcus faecalis (GC 4552))?
The value was 32 µg/mL (≈ 22.6 µM).

And the “MIC Enterococcus faecalis (GC 4553)” value (Enterococcus sp.; Enterococcus faecalis (GC 4553))?
Its value is 32 µg/mL (≈ 22.6 µM).

And the “MIC Enterococcus faecalis (GC 4554)” value (Enterococcus sp.; Enterococcus faecalis (GC 4554))?
Its value is 64 µg/mL (≈ 45.3 µM).

What about the “MIC Enterococcus faecalis (GC 6189)” value (Enterococcus sp.; Enterococcus faecalis (GC 6189)) of the same compound?
Its value is 32 µg/mL (≈ 22.6 µM).

What about the “MIC Enterococcus faecium (GC 2243)” value (Enterococcus sp.; Enterococcus faecium (GC 2243)) of the same compound?
The value was 64 µg/mL (≈ 45.3 µM).

And the “MIC Enterococcus faecium (GC 4556)” value (Enterococcus sp.; Enterococcus faecium (GC 4556))?
Its value is 32 µg/mL (≈ 22.6 µM).

And the “MIC Enterococcus faecium (GC 4557)” value (Enterococcus sp.; Enterococcus faecium (GC 4557))?
Its value is 8 µg/mL (≈ 5.66 µM).

What about the “MIC Enterococcus faecalis (ATCC 29212)” value (Enterococcus sp.; strain ATCC 29212) of the same compound?
The value was 32 µg/mL (≈ 22.6 µM).

What about the “MIC Enterococcus faecalis (GC 2242)” value (Enterococcus sp.; strain GC 2242) of the same compound?
Its value is 32 µg/mL (≈ 22.6 µM).

What about the “MIC Enterococcus faecium (GC 2243)” value (Enterococcus sp.; strain GC 2243) of the same compound?
The value was 64 µg/mL (≈ 45.3 µM).

And the “MIC Enterococcus faecalis (GC 2691)” value (Enterococcus sp.; strain GC 2691)?
Its value is 32 µg/mL (≈ 22.6 µM).

And the “MIC Enterococcus faecalis (GC 3059)” value (Enterococcus sp.; strain GC 3059)?
Its value is 64 µg/mL (≈ 45.3 µM).

What about the “MIC Enterococcus faecalis (GC 4552)” value (Enterococcus sp.; strain GC 4552) of the same compound?
The value was 32 µg/mL (≈ 22.6 µM).

What about the “MIC Enterococcus faecalis (GC 4553)” value (Enterococcus sp.; strain GC 4553) of the same compound?
The value was 32 µg/mL (≈ 22.6 µM).

What about the “MIC Enterococcus faecalis (GC 4554)” value (Enterococcus sp.; strain GC 4554) of the same compound?
The value was 64 µg/mL (≈ 45.3 µM).

What about the “MIC Enterococcus faecium (GC 4556)” value (Enterococcus sp.; strain GC 4556) of the same compound?
Its value is 32 µg/mL (≈ 22.6 µM).

What about the “MIC Enterococcus faecium (GC 4557)” value (Enterococcus sp.; strain GC 4557) of the same compound?
The value was 8 µg/mL (≈ 5.66 µM).

And the “MIC Enterococcus avium (GC 4558)” value (Enterococcus sp.; strain GC 4558)?
The value was 32 µg/mL (≈ 22.6 µM).

And the “MIC Enterococcus faecalis (GC 6189)” value (Enterococcus sp.; strain GC 6189)?
The value was 32 µg/mL (≈ 22.6 µM).

What about the “MIC Streptococcus agalactiae (GC 4564)” value (Streptococcus sp.; Streptococcus agalactiae (GC 4564)) of the same compound?
The value was 4 µg/mL (≈ 2.83 µM).

What about the “MIC Streptococcus pneumoniae (ATCC 6301)” value (Streptococcus sp.; Streptococcus pneumoniae (ATCC 6301)) of the same compound?
The value was 2 µg/mL (≈ 1.42 µM).

And the “MIC Streptococcus pneumoniae (GC 1894)” value (Streptococcus sp.; Streptococcus pneumoniae (GC 1894))?
Its value is 1 µg/mL (≈ 0.708 µM).

And the “MIC Streptococcus pneumoniae (GC 4565)” value (Streptococcus sp.; Streptococcus pneumoniae (GC 4565))?
The value was 2 µg/mL (≈ 1.42 µM).

What about the “MIC Streptococcus pyogenes (GC 4563)” value (Streptococcus sp.; Streptococcus pyogenes (GC 4563)) of the same compound?
Its value is 4 µg/mL (≈ 2.83 µM).

What about the “MIC Streptococcus pneumoniae (ATCC 6301)” value (Streptococcus sp.; strain ATCC 6301) of the same compound?
The value was 2 µg/mL (≈ 1.42 µM).

What about the “MIC Streptococcus pneumoniae (GC 1894)” value (Streptococcus sp.; strain GC 1894) of the same compound?
Its value is 1 µg/mL (≈ 0.708 µM).

And the “MIC Streptococcus pyogenes (GC 4563)” value (Streptococcus sp.; strain GC 4563)?
The value was 4 µg/mL (≈ 2.83 µM).

What about the “MIC Streptococcus agalactiae (GC 4564)” value (Streptococcus sp.; strain GC 4564) of the same compound?
Its value is 4 µg/mL (≈ 2.83 µM).

And the “MIC Streptococcus pneumoniae (GC 4565)” value (Streptococcus sp.; strain GC 4565)?
The value was 2 µg/mL (≈ 1.42 µM).
